Assays:
[1] = system: Staphylococcus aureus (SA; MSSA SH1000); assay: Minimum inhibitory concentration (MIC); format: cell-based
Procedure: (§1) As used herein, the term “minimum inhibitory concentration (MIC)” refers to the lowest concentration of an antimicrobial agent that will inhibit the visible growth of a microorganism after overnight incubation. MIC values against bacteria, for example, the Gram-positive Staphylococcus aureus and Enterococcus faecalis and the Gram-negative Escherichia coli and Pseudomonas aeruginosa were determined by standard methods. See also P. A. Wayne, Methods for Dilution Antimicrobial Tests for Bacteria that Grow Aerobically; Approved Standard, Ninth Edition, 2012, CLSI Document M07-A9, Vol. 32 No. 2, which is incorporated by reference herein in its entirety.
(§2) Compounds were serially diluted two-fold from a 10% DMSO/aqueous stock solution to yield twelve test concentrations. Overnight S. aureus, E. faecalis, E. coli, P. aeruginosa, CA-MRSA, and HA-MRSA cultures diluted to ca. 10^6 cfu/mL in Mueller-Hinton media and 100 μL were inoculated into each well of a U-bottom 96-well plate (BD Biosciences, BD351177) containing 100 μL of compound solution. Plates were incubated statically at 37° C. for 72 hours upon which time wells were evaluated visually for bacterial growth. The MIC was determined as the lowest concentration of compound resulting in no bacterial growth visible to the naked eye, based on the majority of three independent experiments. Positive and negative DMSO/aqueous solution and media controls were conducted for each trial. See Peng et al., 2011, Chem. Comm. 47:4896-4898.
as §2, with “trial.” for “trial. See Peng et al., 2011, Chem. Comm. 47:4896-4898.”

[2] = system: Enterococcus faecalis biofilms; assay: Minimum biofilm eradication concentration (MBEC), regrowth assay; format: cell-based; conditions: Table 1
Text: (§3) A regrowth assay was used to establish the MBEC of a compound to evaluate the antibiofilm activity. See also H. Ceri, M. Olson, D. Morck, D. Storey, R. Read, A. Buret, B. Olson, Methods Enzymol. 2001, 337, 377, which is incorporated by reference herein in its entirety.

[3] = system: Staphylococcus aureus (MSSA) biofilms; assay: as above; format: cell-based; conditions: Table 1
Procedure: as §3
(§4) To each well of a flat-bottomed 96-well plate (Corning 3370), 8 μL of overnight bacterial culture was brought to a volume of 200 μL with fresh media (BHI for MSSA and MRSA). Plates were incubated statically for 24 hours at 37° C. to establish biofilms. After 24 hours, the wells were carefully emptied by inverting the plate and gently shaking. A pre-mixed solution of media and compound stock solution was added to each well and plates were incubated at 37° C. 16 hours after pre-established biofilms were treated with compound, the media from each well was removed, biofilms were washed three times with 200 μL PBS to remove planktonic cells, and biofilms were incubated overnight at 37° C. in 200 μL of fresh media to allow any viable cells to continue growing. The wells were then vigorously pipetted to resuspend the biofilm cells and the OD at 595 nm was measured using a plate reader (POLARstar Omega, BMG Labtech). Biofilms reaching a final OD of less than 0.1 were considered eradicated and the lowest concentration of antibiotic corresponded to the MBEC. Four replicates were completed for each concentration of compound as well as positive and negative controls.

[4] = system: Enterococcus faecalis (OG1RF); assay: Minimum inhibitory concentration (MIC); format: cell-based; conditions: for MIC v EF: Table 1
Procedure: as §1, §2
as §2, with “trial.” for “trial. See Peng et al., 2011, Chem. Comm. 47:4896-4898.”

[5] = system: Pseudomonas aeruginosa (PAO1); assay: Minimum inhibitory concentration (MIC); format: cell-based; conditions: for MIC v PA: Table 1
Procedure: as §1, §2
as §2, with “trial.” for “trial. See Peng et al., 2011, Chem. Comm. 47:4896-4898.”

[6] = system: Escherichia coli (MC4100); assay: Minimum inhibitory concentration (MIC); format: cell-based; conditions: for MIC v EC: Table 1
Procedure: as §1, §2
as §2, with “trial.” for “trial. See Peng et al., 2011, Chem. Comm. 47:4896-4898.”

[7] = system: six bacteria (SA, HA-MRSA, CA-MRSA, EF, EC, PA); assay: MIC against the panel of bacteria tested; format: cell-based; conditions: for antimicrobial activity: quinine- and nicotine-derived QACs, in words
Procedure: as §1
The complete set of MIC values against six bacteria [Staphylococcus aureus (SA), hospital-acquired methicillin-resistant SA (HA-MRSA), community-acquired methicillin-resistant SA (CA-MRSA), Enterococcus faecalis (EF), Escherichia coli (EC), and Pseudomonas aeruginosa (PA)] is presented in Table 3, wherein multiQACs are grouped with their monoQAC counterparts. The dye-based QACs with greatest inhibition of the complete range of Gram-positive and Gram-negative bacteria featured bis- or tris-quaternization, with the optimal alkyl total ranging from 17-24 carbons. For example, comparison of two biscationic series -LMG-n,1 and LMG-n,n—evaluates the effect of total alkyl chain length in retention of efficacy against the more challenging CA-MRSA and the Gram-negative strains EC and PA.
as §2

[8] = system: community-acquired methicillin-resistant Staphylococcus aureus CA-MRSA (USA300-0114); assay: Minimum inhibitory concentration (MIC); format: cell-based; conditions: for MIC v MRSA: Table 2, qac-bearing MRSA strain USA300-0114
Procedure: as §1, §2
as §2, with “trial.” for “trial. See Peng et al., 2011, Chem. Comm. 47:4896-4898.”

red blood cells = format: cell-based, sheep
Procedure: To date, synthesized compounds have been evaluated against planktonic bacteria (E. coli, S. aureus, P. aeruginosa, E. facaelis) and bacterial biofilms (E. facaelis, S. aureus, MRSA); new compounds are similarly assessed. All compounds are also evaluated via a hemolysis assay to assess their ability to lyse red blood cells (RBC) (Nagamune et al., 2000, Toxicology in Vitro 14:139-147). The assay is conducted following a known protocol to determine the concentration of compound that causes 20% of RBCs to be lysed. […] All compounds are benchmarked against three commercial antiseptics—benzalkonium chloride, DDAC, and CHX (FIG. 1).
Hemolysis assays were performed according to a known method (Peng et al., 2011, Chem. Comm. 47:4896-4898). Defibrinated sheep blood was purchased from Hemostat Labs (DSB030). Compounds representative of each class were serially diluted in sterile PBS from stock solutions and incubated with resuspended blood cells. The OD of the final suspensions were measured directly using plate reader. TritonX (1% by volume) served as a positive control (100% lysis marker) and sterile PBS served as a negative control (0% lysis marker).

[9] = system: MRSA biofilms (S. aureus USA300-0114); assay: Minimum biofilm eradication concentration (MBEC), regrowth assay; format: cell-based, Staphylococcus aureus; conditions: Table 2; pre-formed MRSA biofilms
Procedure: as §3, §4

Pseudomonas aeruginosa = system: Pseudomonas aeruginosa; parameters: MIC against Pseudomonas aeruginosa: unit not given here; conditions: cited from earlier work
[10] = system: methicillin-resistant Staphyloccocus aureus (MRSA); conditions: at 350 μm, cited from earlier work
[11] = system: two MRSA strains-USA300-0114 and ATCC33591; assay: MIC against MRSA strains compared to MSSA; format: cell-based, Staphylococcus aureus; conditions: natural product-derived QACs; for susceptibility to QAC/MRSA resistance: MSSA vs MRSA, in words
Procedure: as §2
MIC values against Gram-positive Staphylococcus aureus (methicillin-susceptible Staphyloccocus aureus (MSSA) and two MRSA strains-USA300-0114 and ATCC33591) and Enterococcus faecalis and Gram-negative Escherichia coli and P. aeruginosa were determined according to standard, and results appear in Table 4.

[12] = system: hospital-acquired methicillin-resistant Staphylococcus aureus HA-MRSA (ATCC 33591); assay: Minimum inhibitory concentration (MIC); format: cell-based; conditions: Table 6
Procedure: as §1, §2
as §2, with “trial.” for “trial. See Peng et al., 2011, Chem. Comm. 47:4896-4898.”

[13] = Table 2, non-resistant S. aureus strain (SH1000)

Molecule	MIC v SA ([1]; Table 1)	MBEC v EF [2]	MBEC v SA [3]	MIC v EF [4]	MIC v PA [5]	MIC v EC [6]	antimicrobial activity [7]	other results
CCCCCCCCCCCC[N+](C)(C)CCCN(C)CCC[N+](C)(C)CCCCCCCCCCCC [12(3)0(3)12]	1 µM	50 µM	37.5 µM	2 µM	4 µM	1 µM		
C=CC[N+](C)(CC[N+](C)(C)CCCCCCCCCCCC)CC[N+](C)(CC=C)CC[N+](C)(C)CCCCCCCCCCCC (stereo not shown) [N4-12,allyl,allyl,12]								MIC v SA [1, 13]: 1 µM; MIC ([7]; FIG. 4 legend, range of MIC values): 1 to 2 µM; MIC v MRSA [8]: 1 µM; Lysis20 (red blood cells): 8 µM; TI MRSA (red blood cells): 8; TI SA (red blood cells): 8; MBEC v MRSA [9]: 150 µM
COc1ccc2cc3[n+](cc2c1OC)CCc1cc2c(cc1-3)OCO2 [Berberine, berberine]								activity against P. aeruginosa (Pseudomonas aeruginosa; in words, literature): micromolar activity
Latifolian A								MIC against Pseudomonas aeruginosa (Pseudomonas aeruginosa; Martin et al., 2011): 35; inhibition of MRSA [10]: 55%
C=CC1C[N+]2(C)CCC1C[C@H]2[C@@H](O)c1cc[n+](C)c2ccc(OC)cc12 (stereo partly shown) [Q-1,1]							essentially no antimicrobial activity	
C[n+]1cccc([C@@H]2CCC[N+]2(C)C)c1 [N-1,1]							essentially no antimicrobial activity	
C=CC1C[N+]2(CCCCCCCCCCCCCCCC)CCC1C[C@H]2[C@@H](O)c1cc[n+](C)c2ccc(OC)cc12.[Br-].[I-] (stereo partly shown) [Q-16,1]							single-digit micromolar activity	susceptibility to QAC/MRSA resistance [11]: unaffected by QAC resistance
COc1cc2c(cc1O)[C@@H](Cc1ccc(O)cc1)[N+](C)(C)CC2 [magnocuraine, magnocurarine]								effectiveness against MRSA ([10]; in words): no effectiveness
CCCCCCCCCCCC[N+](C)(C)CCC[N+](C)(C)CCC[N+](C)(C)CCCCCCCCCCCC [12(3)1(3)12]	1 µM	50 µM	50 µM	2 µM	8 µM	2 µM		
C=CC1C[N+]2(CCCCCCCCCCCCCCCCCC)CCC1C[C@H]2[C@@H](O)c1cc[n+](C)c2ccc(OC)cc12.[Br-].[I-] (stereo partly shown) [Q-18,1]							single-digit micromolar activity	susceptibility to QAC/MRSA resistance [11]: unaffected by QAC resistance
benzalkonium chloride [reference compound]	8 µM	200 µM	200 µM	8 µM	63 µM	32 µM		MIC v SA [1, 13]: 8 µM; MIC SA ([1]; Table 6): 8 µM; MIC v MRSA [8]: 32 µM; MIC CA-MRSA ([8]; Table 6): 8 µM; Lysis20 (red blood cells): 63 µM; TI MRSA (red blood cells): 2; TI SA (red blood cells): 8; MIC HA-MRSA [12]: 32 µM; MIC EF ([4]; Table 6): 8 µM; MIC PA ([5]; Table 6): 63 µM; MIC EC ([6]; Table 6): 32 µM; MBEC v MRSA [9]: >200 µM
CCCCCCCCCCCC[N+](C)(C)CCN(C)CCN(C)CC[N+](C)(C)CCCCCCCCCCCC [N4-12,0,0,12]	1 µM	75 µM	50 µM	1 µM	2 µM	1 µM		
C=CC1C[N+]2(CCCCCCCCCCCCCC)CCC1C[C@H]2[C@@H](O)c1ccnc2ccc(OC)cc12.[Br-] (stereo partly shown) [Q-14,0]							strongest activity	
C=CC1C[N+]2(CCCCCCCCCCCCCCCCCC)CCC1C[C@H]2[C@@H](O)c1ccnc2ccc(OC)cc12.[Br-] (stereo partly shown) [Q-18,0]								increase in MIC of MRSA as compared to MSSA [11]: 32 fold
CCCCCCCCCCC[n+]1ccc(-c2cc[n+](CCCCCCCCCCC)cc2)cc1 [PQ-11,11]	1 µM	50 µM	50 µM	1 µM	4 µM	1 µM		
